# Assay results from patent publication US9309201B2, “Process for preparating ivabradine hydrochloride form IV and methods of treatment of disease using ivabradine hydrochloride form IV” (URQUIMA, S.A., priority 2011, dated 2016).
# Counter-ions that a name gives are not always drawn.
# Assay: Check for transformation of crystalline Form IV after tablet manufacture
# Assay type: physicochemical
# Protocol: All the components, with the exception of magnesium stearate and silica colloidal anhydrous, were mixed. Finally, silica colloidal anhydrous and magnesium stearate were added and mixed. The blend was compressed in an excentric tabletting machine.
# All the components with the exception of magnesium stearate and silica colloidal anhydrous were mixed and granulated using ethanol as a granulating solvent. Then a wet calibration of the granules was performed. The obtained granules were dried followed by a dry calibration of the granules. Thereafter, silica colloidal anhydrous and magnesium stearate were added and mixed. The lubricated granulate was compressed in an eccentric tabletting machine.
# Finally, tablets were coated using conventional coating agents until a weight increase of approximately 3%.
structure (smiles),measurement,setting,value
"COc1cc2c(cc1OC)CC(=O)N(CCCN(C)C[C@H]1Cc3cc(OC)c(OC)cc31)CC2 [Form IV of ivabradine hydrochloride, ivabradine hydrochloride]",transformation of the crystalline Form IV in tablets,"Example 26 tablets, blend compressed directly in an excentric tabletting machine",absence of any transformation
same,transformation of the crystalline Form IV in film-coated tablets,"Example 27 tablets, wet granulation with ethanol, drying, compression, coating to approximately 3% weight increase",absence of any transformation
